Measured values published in PubChem BioAssay (NCI).
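Method: 48-hour compound exposure of cells in 96-well plates, five concentrations, linear interpolation of endpoints. TGI is the concentration that stops growth completely.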

Columns and labels:
Assay in all cases: NCI anticancer screen, dose series, 48 h
786-0 renal = system: 786-0 renal
A549 NSCLC = system: A549 NSCLC
ACHN renal = system: ACHN renal
BT-549 breast = system: BT-549 breast
CAKI-1 renal = system: CAKI-1 renal
CCRF-CEM leukemia = system: CCRF-CEM leukemia
COLO 205 colon = system: COLO 205 colon
DU-145 prostate = system: DU-145 prostate
EKVX NSCLC = system: EKVX NSCLC
HCC-2998 colon = system: HCC-2998 colon
HCT-116 colon = system: HCT-116 colon
HCT-15 colon = system: HCT-15 colon
HL-60(TB) leukemia = system: HL-60(TB) leukemia
HOP-62 NSCLC = system: HOP-62 NSCLC
HS 578T breast = system: HS 578T breast
HT29 colon = system: HT29 colon
IGROV1 ovarian = system: IGROV1 ovarian
K-562 leukemia = system: K-562 leukemia
KM12 colon = system: KM12 colon
LOX IMVI melanoma = system: LOX IMVI melanoma
M14 melanoma = system: M14 melanoma
MALME-3M melanoma = system: MALME-3M melanoma
MCF7 breast = system: MCF7 breast
MDA-MB-231 breast = system: MDA-MB-231 breast
MDA-N = system: MDA-N
MOLT-4 leukemia = system: MOLT-4 leukemia
NCI-H226 lung = system: NCI-H226 lung
NCI-H23 lung = system: NCI-H23 lung
NCI-H460 lung = system: NCI-H460 lung
NCI-H522 lung = system: NCI-H522 lung
NCI/ADR-RES ovarian = system: NCI/ADR-RES ovarian
OVCAR-4 ovarian = system: OVCAR-4 ovarian
OVCAR-5 ovarian = system: OVCAR-5 ovarian
OVCAR-8 ovarian = system: OVCAR-8 ovarian
PC-3 prostate = system: PC-3 prostate
RXF 393 renal = system: RXF 393 renal
SF-268 CNS = system: SF-268 CNS
SF-295 CNS = system: SF-295 CNS
SF-539 CNS = system: SF-539 CNS
SK-MEL-2 melanoma = system: SK-MEL-2 melanoma
SK-MEL-28 melanoma = system: SK-MEL-28 melanoma
SK-MEL-5 melanoma = system: SK-MEL-5 melanoma
SK-OV-3 ovarian = system: SK-OV-3 ovarian
SN12C renal = system: SN12C renal
SNB-19 CNS = system: SNB-19 CNS
SNB-75 CNS = system: SNB-75 CNS
SR leukemia = system: SR leukemia
SW-620 colon = system: SW-620 colon
T-47D breast = system: T-47D breast
TK-10 renal = system: TK-10 renal
U251 CNS = system: U251 CNS
UACC-257 melanoma = system: UACC-257 melanoma
UACC-62 melanoma = system: UACC-62 melanoma
UO-31 renal = system: UO-31 renal

Measured: TGI

CC(C1CCCC1=O)C1CCCC1=O (centres undefined)
> 100 µM: 786-0 renal | A549 NSCLC | ACHN renal | BT-549 breast | CAKI-1 renal | CCRF-CEM leukemia | COLO 205 colon | DU-145 prostate | EKVX NSCLC | HCC-2998 colon | HCT-116 colon | HCT-15 colon | HL-60(TB) leukemia | HOP-62 NSCLC | HS 578T breast | HT29 colon | IGROV1 ovarian | K-562 leukemia | KM12 colon | LOX IMVI melanoma | M14 melanoma | MALME-3M melanoma | MCF7 breast | MDA-MB-231 breast | MDA-N | MOLT-4 leukemia | NCI-H226 lung | NCI-H23 lung | NCI-H460 lung | NCI-H522 lung | NCI/ADR-RES ovarian | OVCAR-4 ovarian | OVCAR-5 ovarian | OVCAR-8 ovarian | PC-3 prostate | RXF 393 renal | SF-268 CNS | SF-295 CNS | SF-539 CNS | SK-MEL-2 melanoma | SK-MEL-28 melanoma | SK-MEL-5 melanoma | SK-OV-3 ovarian | SN12C renal | SNB-19 CNS | SNB-75 CNS | SR leukemia | SW-620 colon | T-47D breast | TK-10 renal | U251 CNS | UACC-257 melanoma | UACC-62 melanoma | UO-31 renal
